{"source": "patent US6689773B2", "about": "“Uracil substituted phenyl sulfamoyl carboxamides” (BASF Aktiengesellschaft, priority 2000, dated 2004)", "format_in_all_cases": "in vivo", "key": {"[1]": {"tested_on": "TRZAW, Winter wheat, Tritium Aestivum, L. (Winter)", "assay": "Postemergence herbicidal evaluation (Example 147)", "details": "rating scale 0-9, two to three weeks after treatment", "outline": "(§1)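 Seedlings grown about two weeks, then sprayed (nozzle at 40 psi) with compound in 80/20 acetone/water plus 1.0% methylated seed oil at about 0.016 to 0.032 kg/ha. Kept in greenhouse; visual injury rated 0-9 versus untreated control two to three weeks after treatment; replicate tests averaged.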"}, "[2]": {"tested_on": "ALOMY, Blackgrass, Alopecurus myosuroides", "assay": "Postemergence herbicidal evaluation (Example 147)", "details": "rating scale 0-9, two to three weeks after treatment", "outline": "as §1"}, "[3]": {"tested_on": "GLXMA, Soybean, Glycine max, (L.) Merr.", "assay": "Postemergence herbicidal evaluation (Example 147)", "details": "rating scale 0-9, two to three weeks after treatment", "outline": "as §1"}, "[4]": {"tested_on": "CHEAL, Lambsquarters, Chenopodium album, L. Common", "assay": "Postemergence herbicidal evaluation (Example 147)", "details": "rating scale 0-9, two to three weeks after treatment", "outline": "as §1"}, "[5]": {"tested_on": "ZEAMX, Field corn, Zea mays L.", "assay": "Postemergence herbicidal evaluation (Example 147)", "details": "rating scale 0-9, two to three weeks after treatment", "outline": "as §1"}, "[6]": {"tested_on": "XANST, Cocklebur, Xanthium strumariam", "assay": "Postemergence herbicidal evaluation (Example 147)", "details": "rating scale 0-9, two to three weeks after treatment", "outline": "as §1"}, "[7]": {"tested_on": "IPOHE, Morningglory, Ivyleaf, Ipomoea hederacea, (L)Jacq.", "assay": "Postemergence herbicidal evaluation (Example 147)", "details": "rating scale 0-9, two to three weeks after treatment", "outline": "as §1"}, "[8]": {"tested_on": "SETVI, Green foxtail, Setaria viridis, (L.)Beau", "assay": "Postemergence herbicidal evaluation (Example 147)", "details": "rating scale 0-9, two to three weeks after treatment", "outline": "as §1"}, "[9]": {"tested_on": "AMBEL, Ragweed, Common, Ambrosia artemiisifolia, L.", "assay": "Postemergence herbicidal evaluation (Example 147)", "details": "rating scale 0-9, two to three weeks after treatment", "outline": "as §1"}, "[10]": {"tested_on": "ECHCG, Barnyardgrass, Echinochloa crusgalli, (L.)Beau", "assay": "Postemergence herbicidal evaluation (Example 147)", "details": "rating scale 0-9, two to three weeks after treatment", "outline": "as §1"}, "[11]": {"tested_on": "DIGSA, Crabgrass, (Hairy) L, Digitaria sanguinalis, (L)Scop", "assay": "Postemergence herbicidal evaluation (Example 147)", "details": "rating scale 0-9, two to three weeks after treatment", "outline": "as §1"}, "[12]": {"tested_on": "ABUTH, Velvetleaf, Abutilon theophrasti, Medic.", "assay": "Postemergence herbicidal evaluation (Example 147)", "details": "rating scale 0-9, two to three weeks after treatment", "outline": "as §1"}, "[13]": {"tested_on": "TRZAW, Winter wheat, Tritium Aestivum, L. (Winter)", "assay": "Preemergence herbicidal evaluation (Example 148)", "details": "rating scale 0-9, two to four weeks after treatment", "outline": "(§2)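 Scores reflect visual assessment of plant stand, vigour, malformation, size and chlorosis relative to an untreated control, made two to four weeks after a preemergence spray delivering about 0.125–0.250 kg/ha.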"}, "[14]": {"tested_on": "ALOMY, Blackgrass, Alopecurus myosuroides", "assay": "Preemergence herbicidal evaluation (Example 148)", "details": "rating scale 0-9, two to four weeks after treatment", "outline": "as §2"}, "[15]": {"tested_on": "GLXMA, Soybean, Glycine max, (L.) Merr.", "assay": "Preemergence herbicidal evaluation (Example 148)", "details": "rating scale 0-9, two to four weeks after treatment", "outline": "as §2"}, "[16]": {"tested_on": "CHEAL, Lambsquarters, Chenopodium album, L. Common", "assay": "Preemergence herbicidal evaluation (Example 148)", "details": "rating scale 0-9, two to four weeks after treatment", "outline": "as §2"}, "[17]": {"tested_on": "ZEAMX, Field corn, Zea mays L.", "assay": "Preemergence herbicidal evaluation (Example 148)", "details": "rating scale 0-9, two to four weeks after treatment", "outline": "as §2"}, "[18]": {"tested_on": "XANST, Cocklebur, Xanthium strumariam", "assay": "Preemergence herbicidal evaluation (Example 148)", "details": "rating scale 0-9, two to four weeks after treatment", "outline": "as §2"}, "[19]": {"tested_on": "IPOHE, Morningglory, Ivyleaf, Ipomoea hederacea, (L)Jacq.", "assay": "Preemergence herbicidal evaluation (Example 148)", "details": "rating scale 0-9, two to four weeks after treatment", "outline": "as §2"}, "[20]": {"tested_on": "SETVI, Green foxtail, Setaria viridis, (L.)Beau", "assay": "Preemergence herbicidal evaluation (Example 148)", "details": "rating scale 0-9, two to four weeks after treatment", "outline": "as §2"}, "[21]": {"tested_on": "AMBEL, Ragweed, Common, Ambrosia artemiisifolia, L.", "assay": "Preemergence herbicidal evaluation (Example 148)", "details": "rating scale 0-9, two to four weeks after treatment", "outline": "as §2"}, "[22]": {"tested_on": "ECHCG, Barnyardgrass, Echinochloa crusgalli, (L.)Beau", "assay": "Preemergence herbicidal evaluation (Example 148)", "details": "rating scale 0-9, two to four weeks after treatment", "outline": "as §2"}, "[23]": {"tested_on": "DIGSA, Crabgrass, (Hairy) L, Digitaria sanguinalis, (L)Scop", "assay": "Preemergence herbicidal evaluation (Example 148)", "details": "rating scale 0-9, two to four weeks after treatment", "outline": "as §2"}, "[24]": {"tested_on": "ABUTH, Velvetleaf, Abutilon theophrasti, Medic.", "assay": "Preemergence herbicidal evaluation (Example 148)", "details": "rating scale 0-9, two to four weeks after treatment", "outline": "as §2"}}}
{"smiles": "CCN(CC)S(=O)(=O)NC(=O)c1cc(-n2c(=O)cc(C(F)(F)F)n(C)c2=O)c(F)cc1Cl", "note": "[Example 68]", "values": [{"measurement": "Postemergence herbicidal rating TRZAW", "setting": "[1]; rate 0.016 kg/ha", "result": 5.0}, {"measurement": "Postemergence herbicidal rating TRZAW", "setting": "[1]; rate 0.032 kg/ha", "result": 5.5}, {"measurement": "Postemergence herbicidal rating ALMOY", "setting": "[2]; rate 0.016 kg/ha", "result": 1.0}, {"measurement": "Postemergence herbicidal rating ALMOY", "setting": "[2]; rate 0.032 kg/ha", "result": 1.0}, {"measurement": "Postemergence herbicidal rating GLXMA", "setting": "[3]; rate 0.016 kg/ha", "result": 8.5}, {"measurement": "Postemergence herbicidal rating GLXMA", "setting": "[3]; rate 0.032 kg/ha", "result": 8.5}, {"measurement": "Postemergence herbicidal rating CHEAL", "setting": "[4]; rate 0.016 kg/ha", "result": 8.0}, {"measurement": "Postemergence herbicidal rating CHEAL", "setting": "[4]; rate 0.032 kg/ha", "result": 8.0}, {"measurement": "Postemergence herbicidal rating ZEAMX", "setting": "[5]; rate 0.016 kg/ha", "result": 7.0}, {"measurement": "Postemergence herbicidal rating ZEAMX", "setting": "[5]; rate 0.032 kg/ha", "result": 7.5}, {"measurement": "Postemergence herbicidal rating XANST", "setting": "[6]; rate 0.016 kg/ha", "result": 9.0}, {"measurement": "Postemergence herbicidal rating XANST", "setting": "[6]; rate 0.032 kg/ha", "result": 9.0}, {"measurement": "Postemergence herbicidal rating IPOHE", "setting": "[7]; rate 0.016 kg/ha", "result": 9.0}, {"measurement": "Postemergence herbicidal rating IPOHE", "setting": "[7]; rate 0.032 kg/ha", "result": 9.0}, {"measurement": "Postemergence herbicidal rating SETVI", "setting": "[8]; rate 0.016 kg/ha", "result": 7.0}, {"measurement": "Postemergence herbicidal rating SETVI", "setting": "[8]; rate 0.032 kg/ha", "result": 9.0}, {"measurement": "Postemergence herbicidal rating AMBEL", "setting": "[9]; rate 0.016 kg/ha", "result": 9.0}, {"measurement": "Postemergence herbicidal rating AMBEL", "setting": "[9]; rate 0.032 kg/ha", "result": 9.0}, {"measurement": "Postemergence herbicidal rating ECHCG", "setting": "[10]; rate 0.016 kg/ha", "result": 8.0}, {"measurement": "Postemergence herbicidal rating ECHCG", "setting": "[10]; rate 0.032 kg/ha", "result": 8.0}, {"measurement": "Postemergence herbicidal rating DIGSA", "setting": "[11]; rate 0.016 kg/ha", "result": 6.0}, {"measurement": "Postemergence herbicidal rating DIGSA", "setting": "[11]; rate 0.032 kg/ha", "result": 6.0}, {"measurement": "Postemergence herbicidal rating ABUTH", "setting": "[12]; rate 0.016 kg/ha", "result": 9.0}, {"measurement": "Postemergence herbicidal rating ABUTH", "setting": "[12]; rate 0.032 kg/ha", "result": 9.0}, {"measurement": "Preemergence herbicidal rating TRZAW", "setting": "[13]; rate 0.125 kg/ha", "result": 0.0}, {"measurement": "Preemergence herbicidal rating TRZAW", "setting": "[13]; rate 0.25 kg/ha", "result": 0.0}, {"measurement": "Preemergence herbicidal rating ALMOY", "setting": "[14]; rate 0.125 kg/ha", "result": 0.0}, {"measurement": "Preemergence herbicidal rating ALMOY", "setting": "[14]; rate 0.25 kg/ha", "result": 0.0}, {"measurement": "Preemergence herbicidal rating GLXMA", "setting": "[15]; rate 0.125 kg/ha", "result": 7.0}, {"measurement": "Preemergence herbicidal rating GLXMA", "setting": "[15]; rate 0.25 kg/ha", "result": 8.0}, {"measurement": "Preemergence herbicidal rating CHEAL", "setting": "[16]; rate 0.125 kg/ha", "result": 8.0}, {"measurement": "Preemergence herbicidal rating CHEAL", "setting": "[16]; rate 0.25 kg/ha", "result": 8.0}, {"measurement": "Preemergence herbicidal rating ZEAMX", "setting": "[17]; rate 0.125 kg/ha", "result": 1.0}, {"measurement": "Preemergence herbicidal rating ZEAMX", "setting": "[17]; rate 0.25 kg/ha", "result": 2.0}, {"measurement": "Preemergence herbicidal rating XANST", "setting": "[18]; rate 0.125 kg/ha", "result": 9.0}, {"measurement": "Preemergence herbicidal rating XANST", "setting": "[18]; rate 0.25 kg/ha", "result": 9.0}, {"measurement": "Preemergence herbicidal rating IPOHE", "setting": "[19]; rate 0.125 kg/ha", "result": 9.0}, {"measurement": "Preemergence herbicidal rating IPOHE", "setting": "[19]; rate 0.25 kg/ha", "result": 9.0}, {"measurement": "Preemergence herbicidal rating SETVI", "setting": "[20]; rate 0.125 kg/ha", "result": 4.0}, {"measurement": "Preemergence herbicidal rating SETVI", "setting": "[20]; rate 0.25 kg/ha", "result": 8.0}, {"measurement": "Preemergence herbicidal rating AMBEL", "setting": "[21]; rate 0.125 kg/ha", "result": 9.0}, {"measurement": "Preemergence herbicidal rating AMBEL", "setting": "[21]; rate 0.25 kg/ha", "result": 9.0}, {"measurement": "Preemergence herbicidal rating ECHCG", "setting": "[22]; rate 0.125 kg/ha", "result": 3.0}, {"measurement": "Preemergence herbicidal rating ECHCG", "setting": "[22]; rate 0.25 kg/ha", "result": 4.0}, {"measurement": "Preemergence herbicidal rating DIGSA", "setting": "[23]; rate 0.125 kg/ha", "result": 3.0}, {"measurement": "Preemergence herbicidal rating DIGSA", "setting": "[23]; rate 0.25 kg/ha", "result": 4.0}, {"measurement": "Preemergence herbicidal rating ABUTH", "setting": "[24]; rate 0.125 kg/ha", "result": 9.0}, {"measurement": "Preemergence herbicidal rating ABUTH", "setting": "[24]; rate 0.25 kg/ha", "result": 9.0}]}
